Source: US5283256A, “Cholesterol-lowering agents” (Merck & Co., Inc., priority 1992, dated 1994)

How the values were obtained:
[1] = molecular target: T1, squalene synthase (human HepG2 enzyme) (Homo sapiens, UniProt P37268); experiment: Squalene synthase assay, human HepG2 cell enzyme; format: biochemical; settings: 3H-farnesyl pyrophosphate, 30° C., 20 min
T1 construct: The resulting pellet from the 100,000×g centrifugation, containing the squalene synthase; endogenous in cells; host or cells: HepG2 (ATCC HB 8065), microsomal pellet of sonicated cells
T1 sequence (P37268 1-417): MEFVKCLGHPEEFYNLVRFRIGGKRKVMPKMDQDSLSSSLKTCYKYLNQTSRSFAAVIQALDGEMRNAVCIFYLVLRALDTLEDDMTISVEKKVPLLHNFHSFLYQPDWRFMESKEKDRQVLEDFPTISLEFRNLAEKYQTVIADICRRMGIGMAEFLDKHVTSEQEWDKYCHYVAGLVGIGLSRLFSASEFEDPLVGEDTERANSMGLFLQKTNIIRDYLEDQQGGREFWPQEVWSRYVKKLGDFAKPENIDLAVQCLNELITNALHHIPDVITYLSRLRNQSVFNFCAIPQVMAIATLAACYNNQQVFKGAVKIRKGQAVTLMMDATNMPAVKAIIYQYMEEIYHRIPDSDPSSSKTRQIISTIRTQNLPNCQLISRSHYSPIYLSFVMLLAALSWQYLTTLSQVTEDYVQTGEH
Description: The intrinsic squalene synthase inhibitory activity of representative compounds of this invention was measured by the standard in vitro protocol described below:
PREPARATION OF HUMAN HepG2 Cell ENZYME
1. SOURCE: HEPG2 CELL LINE (Liver, hepatoblastoma, Human) ATCC No. HB 8065
2. CELL GROWTH AND MAINTENANCE
Culture Medium: Minimum essential medium (MEM) with non-essential amino acids, sodium pyruvate, and 10% fetal bovine serum. The medium was changed twice weekly. […] The growth medium was prepared as listed below.
SUBCULTURE PROCEDURE: The medium was removed and washed with PBS (Phosphate-Buffered Saline 15.6 mM, pH 7.0). Fresh trypsin (0.25%)-EDTA (0.02%) with Hank's Balanced Salt solution was added and the flask was allowed to stand for a minute before the trypsin solution was removed. The flask was incubated at 37° C. until cells detached. Fresh medium was added and the cells were dispersed and dispensed into new flasks. Subcultivation ratio: 1:6. […]
HARVEST: The medium was removed and the cells were washed with PBS. […] Cells were counted (2.5×10^9 yield from 18 flasks (75 cm^2)), and resuspended in 10 mL of 50mM HEPES (N-[2-Hydroxyethyl]piperazine-N'-[2-ethane sulfonic acid]) containing 5 mM MgCl2, 2 mM MnCl2, 10 mM DTT, pH 7.5 (enzyme suspension buffer). […]

[2] = molecular target: T2, squalene synthase (rat liver enzyme) (Rattus norvegicus, UniProt Q02769); experiment: Squalene synthase assay, rat liver microsomes; format: biochemical; settings: 3H-farnesyl pyrophosphate, 30° C., 20 min
T2 construct: from tissue; host or cells: liver microsomes of male Charles River CD rats fed lovastatin
T2 sequence (Q02769 1-416): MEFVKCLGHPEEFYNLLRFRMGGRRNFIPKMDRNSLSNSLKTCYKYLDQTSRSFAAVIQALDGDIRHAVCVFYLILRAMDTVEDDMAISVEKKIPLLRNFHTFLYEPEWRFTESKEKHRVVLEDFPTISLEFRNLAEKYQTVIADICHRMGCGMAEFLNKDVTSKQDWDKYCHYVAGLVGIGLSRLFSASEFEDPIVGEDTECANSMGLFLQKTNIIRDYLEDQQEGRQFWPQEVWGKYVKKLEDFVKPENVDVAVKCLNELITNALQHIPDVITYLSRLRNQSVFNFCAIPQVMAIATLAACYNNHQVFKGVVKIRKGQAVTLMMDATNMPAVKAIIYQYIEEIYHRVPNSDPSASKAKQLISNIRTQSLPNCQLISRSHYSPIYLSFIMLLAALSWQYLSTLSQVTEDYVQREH
Description: The intrinsic squalene synthase inhibitory activity of representative compounds of this invention was measured by the standard in vitro protocol described below: […] Male, CHARLES RIVER CD rats (120 to 150 g) were fed a diet containing 0.1% lovastatin for 4 days. […] The homogenate was centrifuged twice at 20,000×g for 15 min. at 4° C., discarding the pellet each time. The supernatant was then centrifuged at 100,000×g for 1 hr at 4° C. The resulting microsomal pellet was resuspended in a volume of the above homogenizing buffer equal to one-fifth the volume of the original homogenate. […] The microsomal suspensions were stored in aliquots at -70° C. squalene synthase activity in these aliquots is stable for a least several months. Squalene Synthase Assay Reactions were performed in 1.2 mL polypropylene tube strips of 8. Buffer mixture and substrate mixture for the assay were prepared from the following solution: Buffer mixture contains 270 mM HEPES, pH 7.5, 20 mM Potassium fluoride and 5.4 mM Dithiothreitol (DTT). […] 400 μL of heptane layer was then removed into a minivial and mixed with 2.5 mL of scintillation fluid and the radioactivity was determined by liquid scintillation counting. […] Percent inhibition is calculated by the formula: [formula] IC50 values were determined by plotting the log of the concentration of the test compound versus the percentage inhibition. […]

farnesyl transferase = farnesyl transferase (Homo sapiens, UniProt P49354+P49356); experiment: Farnesyl-transferase assay (Ras farnesylation in vitro); format: biochemical; settings: ras-CVLS, 3H-FPP 100 nM; 60 min, room temperature; read-out: Farnesyl transferase IC50 (inhibition of Ras farnesylation in vitro)
Description: FARNESYL-TRANSFERASE ASSAY
I. PREPARATION OF SOLUTIONS REQUIRED FOR THE ASSAY
203.3 g MgCl2 was dissolved in 1.0 L distilled water, and filtered through a sterile filter and stored at 4° C.
264.5 g of HEPES was added to 700 mL distilled water followed by 56 mL of 1.0M MgCl2 The pH was adjusted to 7.5 with sodium hydroxide and the volume was brought to 1000 mL. The solution was filtered through a sterile filter and stored at 4° C.
iii. 0.5M Dithiothreitol (DTT, MW=154.24)
77.12 mg of DTT was dissolved in 1.0 mL of distilled water. A few drops of 10N NaOH was added to get the DTT to go into solution. 0.5M DTT was divided into 500 μL aliquots and stored at -20° C.
iv. Preparation of Assay Buffer (Prepare fresh daily)
100 μL of 0.5M DTT was added to 900 μL of 1.1M HEPES, pH 7.5 and 55.5 mM MgCl2 to yield a 10X buffer consisting of 1.0M HEPES, pH 7.5, 50 mM MgCl2 and 50 mM DTT.
v. Preparation of ^3 H-FPP
The ^3 H-FPP (NEN #NET-1042, MW=433.3) was used directly from the bottle as provided by NEN. The stock concentration of the ^3 H-FPP was 25 μM.
vi. Preparation of the reaction mix for Totals and unknown samples (on ice)
The reaction mix was prepared as below: […]
x. The filter mats were placed in counting bags, 30 mL of LKB β-scint cocktail was added and the filter mats were counted for 120 sec in the LKB β-plate counter […]
Percent inhibition was calculated according to the following equation: [formula] […]

Ras farnesylation = settings: Hancock et al., Casey et al., Schafer et al.; cited from earlier work

IC50 [1] [nM]	IC50 [2] [nM]	IC50 (farnesyl transferase) [nM]	Compound	Inhibition of Ras farnesylation in vivo (in words) (Ras farnesylation)
2	6	100	CCCCCCCCCC(=O)OC1C(O)C2(CCCC(OC(C)=O)C(C)C/C=C/c3ccccc3)OC(C(=O)O)C(O)(C(=O)O)C1(C(=O)O)O2 (centres unmarked) [Zaragozic Acid D2]	
1	6	100	CCCCCCCC(=O)OC1C(O)C2(CCCC(OC(C)=O)C(C)C/C=C/c3ccccc3)OC(C(=O)O)C(O)(C(=O)O)C1(C(=O)O)O2 (centres unmarked) [Zaragozic Acid D]	
			CC[C@H](C)C(=O)O[C@H]1CCC=C2C=C[C@H](C)[C@H](CC[C@@H]3C[C@@H](O)CC(=O)O3)[C@H]21 [compactin]	Inhibition of Ras farnesylation in vivo has been demonstrated
			CC[C@H](C)C(=O)O[C@H]1C[C@@H](C)C=C2C=C[C@H](C)[C@H](CC[C@@H]3C[C@@H](O)CC(=O)O3)[C@H]21 [lovastatin]	Inhibition of Ras farnesylation in vivo has been demonstrated
